Measured values taken from the CheMixHub ionic liquid set.

Assay: xn = mol fraction of the nth substance listed
Details: 101 kPa

CCCCCC(=O)[O-].C[NH2+]Cc1ccccc1 + CN(C)C=O
viscosity [mPa·s]
Details | 293.15 K | 298.15 K | 303.15 K | 308.15 K | 313.15 K | 318.15 K | 323.15 K | 328.15 K
x1 = 0.004888 | 0.957 | 0.916 | 0.879 | 0.846 | 0.817 | 0.791 | 0.767 | 0.746
x1 = 0.008422 | 0.969 | 0.926 | 0.887 | 0.854 | 0.824 | 0.797 | 0.772 | 0.75
x1 = 0.0141 | 0.992 | 0.946 | 0.905 | 0.869 | 0.837 | 0.809 | 0.784 | 0.76
x1 = 0.01792 | 1.009 | 0.961 | 0.918 | 0.881 | 0.847 | 0.818 | 0.791 | 0.767
x1 = 0.02131 | 1.026 | 0.975 | 0.93 | 0.891 | 0.857 | 0.826 | 0.798 | 0.773
x1 = 0.02717 | 1.052 | 0.998 | 0.95 | 0.909 | 0.873 | 0.84 | 0.812 | 0.786
x1 = 0.03049 | 1.072 | 1.016 | 0.966 | 0.923 | 0.884 | 0.85 | 0.82 | 0.793
x1 = 0.03458 | 1.099 | 1.038 | 0.985 | 0.94 | 0.899 | 0.863 | 0.831 | 0.803
